# Patent publication US20230113539A1, “Traditional Chinese medicine for dispersing lung qi and detoxicating” (priority 2020, published 2023)
# Like-named read-outs stand apart in the source and are kept apart here.
# Experiments:
# [1] = system: inflammatory factors IL-6, IL-10, TNF-α, INF-γ in lung tissue; test: Inflammatory factor content in lung tissue (ELISA), same mouse model; assay type: in vivo, BALB/c mice
# Text: (§1) 90 Balb/c mice are taken, SPF-grade, half male and half female, and the body weight is 10-12 g. They are randomly divided into a normal control group, a 229E infection group, a cold-damp control group, a disease-syndrome combination model group of epidemic viruses attacking lungs in mice (hereinafter referred to as an epidemic virus attacking lung model group), a chloroquine phosphate positive drug group, and an interferon α2b positive drug group, and high, medium and low dosage groups of the traditional Chinese medicine granules of the present invention, there are 10 mice in each group. Except for the normal control group and the 229E infection group, the other mice are continuously placed in an artificial climate box with a relative humidity of 90±3%, no wind, and a temperature of 4±2° C. every day, and are taken out after 4 hours of stimulation for 7 consecutive days.
# (§2) Except for the normal control group and the cold-damp control group, the other mice are infected with 100 TCID50HCOV-229E virus droplets nasally at 50 μL/mice after mild anesthesia with ether on the 5-th and 6-th days of cold-damp stimulation. The administration of each administration group starts on the day of the first infection, and each dosage group of the traditional Chinese medicine granules of the present invention and the chloroquine phosphate positive drug group are administered by gavage at 0.2 ml/10 g; the normal control group, the cold-damp control group, the 229E infection group, the epidemic virus attacking lung model group are given with normal saline under the same conditions; the interferon α2b positive drug group is inhaled with the original drug solution by atomization, and each time is 20 min. It is administered once a day for 3 consecutive days. On the 4-th day of the infection, autopsy is performed after being weighed, and the following indicators are observed and detected.
# (§3) 2.4.4 Detection of Gastrin (GAS), Motilin (MTL) in Mouse Serum and Inflammatory Factor in Lung Tissue (ELISA Method)
# Lung tissue homogenate sample: after weighing the lung tissue from the mouse, the mouse lung tissue is collected and stored at […]. After weighing 50 mg of the lung tissue and adding 500 μL of normal saline, the tissue is homogenized with an ultrasonic cell disruptor, and centrifuged at […] at 1000 xg for 10 minutes with a lower-temperature high-speed centrifuge. After the supernatant is absorbed, it is separately packaged, and stored in the −80° C. refrigerator for later use. Repeated freezing and thawing is avoided. During the detection, it is operated according to the kit instructions, and the microplate reader detects each index at 450 nm of the absorbance.
# GAS, MTL in mouse serum = test: Gastrin (GAS) and motilin (MTL) in mouse serum (ELISA), same mouse model; assay type: in vivo, BALB/c mice
# Text: as §1, §2, §3
# After dissection, mouse […] is placed at a room temperature for 30 min, and centrifuged at 3000×g for 10 min, and a supernatant is absorbed into a new eppendorf (ep) tube and stored at −20° C. During the detection, it is operated according to kit instructions, and a microplate reader detects each index at 450 nm of the absorbance.
# [2] = system: peripheral blood T lymphocyte subset and B lymphocyte; test: Flow cytometry of peripheral blood T lymphocyte subset and B lymphocyte proportion, same mouse model; assay type: in vivo, BALB/c mice
# HCoV-229E nucleic acid = test: Nucleic acid detection (viral load) in lung tissue (RT-PCR), same mouse model; assay type: in vivo, BALB/c mice
# [3] = system: human coronavirus (HCoV-229E); assay type: in vivo
# [4] = chloroquine phosphate Id: 0.18 g/kg/d, 2~3 d: 0.09 g/kg/d
# [5] = chloroquine phosphate Id: 0.18 g/kg/d, 2~3: 0.09 g/kg/d
# [6] = interferon α2b 300 million IU, 20 min
compound,measurement,setting,value
CCN(CC)CCCC(C)Nc1ccnc2cc(Cl)ccc12 (centres unmarked) [Chloroquine phosphate],Inflammatory factor content in lung tissue IL-6,[1]; [4],149.98 ± 29.37 pg/mL
same,Inflammatory factor content in lung tissue IL-10,[1]; [4],52.54 ± 29.40 pg/mL
same,Inflammatory factor content in lung tissue INF-γ,[1]; [4],2.77 ± 3.48 pg/mL
same,Inflammatory factor content in lung tissue TNF-α,[1]; [4],38.33 ± 9.62 pg/mL
same,Factor content in serum GAS,"GAS, MTL in mouse serum; [5]",8.75 ± 1.41 pg/mL
same,Factor content in serum MTL,"GAS, MTL in mouse serum; [5]",105.69 ± 16.85 pg/mL
same,CD4+/CD8+ (peripheral blood),[2]; [4],1.65 ± 0.23
same,Percentage of immune cells in peripheral blood B cell,[2]; [4],15.72 ± 2.24%
same,Percentage of immune cells in peripheral blood CD4+T cell,[2]; [4],32.47 ± 4.65%
same,Percentage of immune cells in peripheral blood CD8+T cell,[2]; [4],20.03 ± 3.68 %
same,Viral load (lung tissue),HCoV-229E nucleic acid; [4],56027.66 ± 31638.92
same,Inhibition rate % (of lung index),"[3]; chloroquine phosphate Id: 0.18 g/kg/d, 2-3: 0.09 g/kg/d",9.82%
same,Lung index (Lung weight/100 g body weight),"[3]; chloroquine phosphate Id: 0.18 g/kg/d, 2-3: 0.09 g/kg/d, gavage",0.85 ± 0.11
Interferon α2b,Inflammatory factor content in lung tissue TNF-α,[1]; [6],33.86 ± 8.72 pg/mL
same,Inflammatory factor content in lung tissue IL-6,"[1]; interferon α2b, 20 min",199.07 ± 38.37 pg/mL
same,Inflammatory factor content in lung tissue IL-10,"[1]; interferon α2b, 20 min",102.25 ± 58.14 pg/mL
same,Inflammatory factor content in lung tissue INF-γ,"[1]; interferon α2b, 20 min",4.20 ± 3.39 pg/mL
same,Factor content in serum GAS,"GAS, MTL in mouse serum; [6]",8.94 ± 1.07 pg/mL
same,Factor content in serum MTL,"GAS, MTL in mouse serum; [6]",115.43 ± 7.90 pg/mL
same,CD4+/CD8+ (peripheral blood),[2]; [6],1.92 ± 0.63
same,Percentage of immune cells in peripheral blood CD4+T cell,[2]; [6],35.17 ± 4.24%
same,Percentage of immune cells in peripheral blood CD8+T cell,[2]; [6],19.68 ± 4.53 %
same,Percentage of immune cells in peripheral blood B cell,"[2]; interferon α2b, 20 min",6.40 ± 0.98%
same,Viral load (lung tissue),HCoV-229E nucleic acid; [6],63758.38 ± 17530.19
same,Inhibition rate % (of lung index),"[3]; interferon α2b 3 million IU, 20 min",40.38%
same,Lung index (Lung weight/100 g body weight),"[3]; interferon α2b 3 million IU, 20 min, atomization inhalation",0.79 ± 0.11
